Here are results for seven molecules from US20090215713A1, “Use of atp for the manufacture of a medicament for the prevention and treatment of oxidative stress and related conditions” (priority 2004, published 2009).

SMILES strings stand for the structures. “Also recorded” adds a separate entry of the source.

Test [1] can be described thus: ESR measurement of DMPO—OH spin adducts during Fenton chemistry. The test is classed as biochemical.
Protocol: The effect of ATP on the formation or scavenging of hydroxyl radicals, generated by Fenton reagents was measured as DMPO—OH spin adducts in ESR spectra. The ESR studies were performed at room temperature using a Bruker EMX 1273 spectrometer equipped with an ER 4119HS high sensitivity cavity and 12 kW power supply. The following instrument conditions were used: scan range, 60 G; center magnetic field, 3490 G; modulation amplitude, 1.0 G; microwave frequency, 9.86 GHz; time constant, 40.96 ms, scan time, 20.48 ms; number of scans, 50. OH radicals were generated by the Fenton reaction, and 5,5-dimethyl-1-pyrroline N-oxide (DMPO) was used for trapping hydroxyl radicals. Fifty microliters of 10 mM H2O2, 50 μl of 250 mM DMPO, 50 μl milliQ, 50 μl milliQ (control) or sample, and 50 μl 5 mM FeSO4/5 mM EDTA were mixed, and then transferred to a capillary glass tube. After 2 minutes, DMPO—OH spin adducts were measured by ESR. Quantification of the spectra was performed by peak integration using the WIN-EPR spectrum manipulation program.
Electron spin resonance (ESR) studies were performed at room temperature using a Bruker EMX 1273 spectrometer equipped with an ER 4119HS high sensitivity cavity and 12 kW power supply. The following instrument conditions were used: scan range, 60 G; center magnetic field, 3490 G; modulation amplitude, 1.0 G; microwave frequency, 9.86 GHz; time constant, 40.96 ms, scan time, 20.48 ms; number of scans, 50. OH radicals were generated by the Fenton reaction, and 5,5-Dimethyl-1-pyrroline N-oxide (DMPO) was used for trapping hydroxyl radicals. Fifty microliters of 10 mM H2O2, 50 μl 250 mM DMPO, 50 μl milliQ, 50 μl milliQ (blanco) or sample and 50 μl 5 mM FeSO4/5 mM EDTA were mixed, transferred to a capillary glass tube and the DMPO—OH spin adducts were measured after 2 minutes by ESR. Quantification of the spectra (in arbitrary units) was performed by peak integration using the WIN-EPR spectrum manipulation program.
The next test has as its system TNF-α. The test is described as follows: LPS+PHA-induced TNF-α secretion in whole blood from healthy subjects (ELISA). The test is classed as cell-based, human. The following applies: for effect of purinergic compound on LPS+PHA-induced TNF-α release: 300 μM, 24 h; for effect on inhibiting TNFα and stimulating IL-10 production: LPS-PHA stimulated whole blood, Experiment 4. The procedure:
FIG. 7 Effect of ATP on LPS+PHA-induced TNF-α secretion in whole blood from healthy subjects. The whole blood was exposed to 10 μg/ml LPS and 1 μg/ml PHA with indicated concentrations of ATP for 24 h. The TNF-α released into the supernatants was analyzed using the ELISA method. Results are expressed in percentage, 100% being the TNF-α release under stimulation by LPS+PHA without ATP. […] Data are expressed as the mean values; error bars represent SEM. *, different from control (stimulation by LPS+PHA without ATP) (P<0.05).
FIG. 13 Effect of different purinergic compounds on LPS+PHA-induced TNF-α secretion in whole blood. The whole blood was exposed to 10 μg/ml LPS and 1 μg/ml PHA with the indicated purinergic compounds at the concentration of 300 μM for 24 h. The TNF-α released into the supernatant was analyzed using the ELISA method. Results are expressed in percentage, 100% being the TNF-α release under stimulation by LPS+PHA without addition of a purinergic compound (control). […] The TNF-α release induced by LPS+PHA from whole blood was not inhibited by UTP, UDP or CTP. Data are expressed as the mean values; error bars represent SEM.
Blood was collected from 8 healthy subjects in heparin containing vacutainer tubes. All incubations were performed in duplicate. ATP was dissolved in RPMI 1640 culture medium, at a final concentration of 1-300 μM, and blood pre-incubated with ATP at 5% CO2 at 37 DC for 30 min. After stimulation with LPS en PHA (10 and 1 μg/ml final concentration, respectively), the plates were incubated in 5% CO2 at 37° C. for 24 h. Cell-free supernatant fluids were then collected by centrifugation (6000 rpm, 10 min at 4° C.) and stored at −20° C. until tested for presence of cytokines. All cytokines were quantified by means of PeliKine Compact human ELISA kits (CLB/Sanquin, The Netherlands), based on appropriate and validated sets of monoclonal antibodies.
Whole blood was collected and stimulated with LPS+PHA as described for Experiment 2. ATP, dissolved in RPMI 1640 culture medium, was added to the blood at a final concentration of 1-1000 μM. The agonists were added in the same way as ATP, however their stock solutions are prepared in PBS and further diluted in medium. All incubations are performed in duplicate.
(In general: ELISA stands for enzyme-linked immunosorbent assay.)

Test [2] deals with mice bearing colon tumour. The following applies: cited from earlier work; for effect on host weight loss: daily intraperitoneal injections of 25 mmol/L for 10 days.

For `Nc1ncnc2c1ncn2[C@@H]1O[C@H](COP(=O)(O)OP(=O)(O)O)[C@@H](O)[C@H]1O` [ADP], in test [1] (0.1 mM-10 mM), the “effectiveness in preventing DMPO—OH formation relative to comparator” value is recorded as “slightly less effective”. In test [1] (highest concentration used (range 0.1 mM-10 mM)), the “inhibition of the DMPO—OH spin adduct formation” value is recorded as “≈ 70%”. For the same molecule, in the test with TNF-α, the “effect of purinergic compound on LPS+PHA-induced TNF-α release” value (shortened to “effect of purinergic compound”) is given as “inhibited”.
With `Nc1ncnc2c1ncn2[C@@H]1O[C@H](COP(=O)(O)O)[C@@H](O)[C@H]1O` [AMP], the “effect on hydroxyl radicals” value in test [1] (0.1, 0.3 and 1 mM) is reported as “no significant effect”; in test [1] (3 and 10 mM), “reduction of hydroxyl radicals; also recorded: significant (P<0.05) reduction”. The “effect of purinergic compound” value in the test on TNF-α is given as “inhibited”. Also, in test [2], the “effect on host weight loss” value is listed as “significant inhibition”.
With `Nc1ccn([C@@H]2O[C@H](COP(=O)(O)OP(=O)(O)OP(=O)(O)O)[C@@H](O)[C@H]2O)c(=O)n1` [CTP], in the test with TNF-α, the “effect of purinergic compound” value is “not inhibited”; the “effect on inhibiting TNFα and stimulating IL-10 production” value is “little or no effect”.
For `O=c1ccn([C@@H]2O[C@H](COP(=O)(O)OP(=O)(O)O)[C@@H](O)[C@H]2O)c(=O)[nH]1` [UDP], in the test on TNF-α, the “effect of purinergic compound” value is on record as “not inhibited”; the “effect on inhibiting TNFα and stimulating IL-10 production” value is on record as “little or no effect”.
In the same order, the values of `O=c1ccn([C@@H]2O[C@H](COP(=O)(O)OP(=O)(O)OP(=O)(O)O)[C@@H](O)[C@H]2O)c(=O)[nH]1` [UTP] are “not inhibited” and “little or no effect”.
For the molecule `Nc1ncnc2nc[nH]c12` [adenine], the “effect on DMPO—OH spin adduct formation / hydroxyl radicals” value in test [1] (1 mM) is listed as “little or no effect; also recorded: no significant (P<0.05) effect”.
Regarding `Nc1ncnc2c1ncn2[C@@H]1O[C@H](CO)[C@@H](O)[C@H]1O` [adenosine], the “effect of purinergic compound” value with TNF-α was “least inhibition”. In addition, in test [2] (adenosine without phosphate), the “inhibition of host weight loss of tumour-bearing animals” value is reported as “ineffective”. The “effect on host weight loss” value in test [2] is on record as “significant inhibition”.
